Measured values taken from publication PMC8636514, “Therapeutic potential of TRPM8 antagonists in prostate cancer” (Scientific Reports, 2021).

Columns and labels:
Assay type in all cases: cell-based, human
[1] = system: AR; assay: Western blot of AR in LNCaP lysate proteins; details: for AR in lysates, Average (n=3): Fig 6d upper panel
Text: (§1) All performed as reported. The mouse monoclonal anti-AR (441; Santa Cruz) antibody was used in Co-Ip or WB approaches. TRPM8 was detected using the rabbit polyclonal anti-TRPM8 (NBP1-97311; Novus Biological). […] The rabbit polyclonal anti-ERK (C-14; Santa Cruz), antibody was used to detect total ERK. FAK and P-Tyr397 FAK were detected using the mouse monoclonal anti-FAK (Clone 77/610077 BD Transduction Laboratories) or anti P-Tyr397 FAK (Clone 14/611722; BD Transduction Laboratories) antibodies, respectively. P-Tyr118 paxillin and total paxillin were detected using the rabbit polyclonal anti-P-Y118 (#2541, Cell Signaling) or the mouse monoclonal anti-paxillin (clone 349; BD Biosciences) antibodies, respectively. […] P-Tyr 416 Src and Src were detected using the rabbit monoclonal anti P-Tyr 416 Src (#6943; Cell Signaling) or the mouse monoclonal anti Src (Calbiochem) antibodies, respectively. ERα and ERβ were detected using the rabbit polyclonal anti-ERα (543; Santa Cruz) or anti-ERβ (Upstate Biotechnology, U.S.A.) antibodies. Cyclin D1, p27 and Cdk4 were stained using the mouse monoclonal anti-cyclin D1 (clone AM29; from Zymed Laboratories Inc.), the rabbit polyclonal anti-p27 (C-19; Santa Cruz) or anti Cdk-4 (c-22; Santa Cruz) antibodies, respectively. The mouse monoclonal anti-tubulin (Sigma-Aldrich) antibody was used to detect tubulin. The ECL system (GE Healthcare) was employed to reveal immune-reactive proteins. Densitometric analysis of WB was performed by using Image J Software (https://imagej.nih.gov/ij).

[2] = system: LNCaP cells; assay: Invasion assay in Matrigel, LNCaP cells; details: for androgen-induced invasion: 10 nM R1881, compound 1 μM; for invasion in the absence of hormone: compound 1 μM alone
Description: (§2) In wound scratch analysis, 1.8 × 10^5 cells were seeded in a 24-well plate and made quiescent. Cells were then wounded using 10 µl sterile pipette tips and washed with PBS. They were left un-stimulated or stimulated for the indicated times, in the absence or presence of the selected compounds. To avoid cell proliferation, cytosine arabinoside (Sigma-Aldrich) at 50 μM (final concentration) was included in the cell medium. Different fields were analysed by contrast-phase microscopy, as below described in this section. Migration and invasion assays were done as reported. In migration assay, we used 3 × 10^4 cells in collagen pre-coated Boyden’s chambers with 8 μm polycarbonate membrane (Falcon). The indicated stimuli were added to the upper and the lower chambers. Cytosine arabinoside (at 50 μM) was included in the cell medium. After 7 h, non-migrating cells from the membrane upper surface were removed using a sterile cotton swab. In invasion assay, we used 5 × 10^4 cells in Boyden’s chambers with 8 μm polycarbonate membrane (Falcon) pre-coated with growth factor reduced- and phenol red-free Matrigel (Corning). The indicated stimuli were added to the upper and the lower chambers. Cytosine arabinoside (at 50 μM) was included in the cell medium. After 24 h, non-invading cells from the membrane upper surface were removed using a sterile cotton swab. In migration and invasion assays, the membranes were fixed for 20 min in 4% paraformaldehyde, stained with Hoechst (Sigma-Aldrich), removed with forceps from the companion plate and mounted. Migrating and invading cells were scored by fluorescence microscopy, as below described in this section.
(§3) In wound scratch assay, different fields were analysed using DMIRB inverted microscope (Leica) equipped with N-Plan 10 × objective (Leica), as reported. LNCaP organoids were analysed using the same microscope equipped with C-Plan 40 × or HCX PL Fluotar 63 × objectives (Leica). Images were captured using a DFC 450C camera (Leica) and acquired using the Application Suite Software (Leica). They are representative of three different experiments. The relative organoid size was calculated using the same software and expressed as a fold increase over the basal organoid size (measured at 3th day). The wound gap was calculated using Image J Software and expressed as % of the decrease in the wound area. Migrating or invading cells from at least 30 fields/each membrane were scored, using a DMLB (Leica) fluorescent microscope, equipped with HCPL Fluotar 20 × objective.

[3] = system: LNCaP cells; assay: DNA synthesis (BrdU incorporation) in LNCaP cells; details: for effect on DNA synthesis stimulated by R1881: 1 nM R1881, compound 1 μM; for inhibitory effect on R1881-stimulated DNA synthesis, compared with 3 and 5: 10 nM R1881, compound 1 μM
Description: […] Cells were fixed, permeabilized, washed and the BrdU incorporation was analysed as reported. Nuclei were stained with Hoechst and cells on coverslips were scored by IF microscopy, using a DMLB Leica (Leica) fluorescent microscope, equipped with HCX PL Apo 63 × oil objective. Different fields from each coverslip were analyzed and BrdU incorporation was calculated by the formula: percentage of BrdU-positive cells = (No. of BrdU-positive cells/No. of total cells) × 100. Data in the graphs derive from at least 1000 scored cells for each coverslip. Representative images were captured using DC480 camera (Leica) and acquired using Leica Suite software. They are representative of three different experiments.

[4] = system: TRPM8; assay: Western blot of TRPM8 in LNCaP lysate proteins; details: for TRPM8 in lysates, Average (n=3): Fig 6d upper panel
Text: as §1

[5] = system: LNCaP cells; assay: Transmigration assay in Boyden chamber, LNCaP cells; details: for androgen-induced cell migration: 10 nM R1881, compound 1 μM; for migration when added alone: compound 1 μM, no hormone
Description: as §2, §3

[6] = system: LNCaP cell spheroids; assay: 3D culture in ECM, LNCaP cell spheroid size; details: for androgen-induced increase of spheroid size / spheroid size in the absence of hormone: 15 days; for spheroid size in the absence of hormone: compound 1 μM alone
Description: LNCaP cell spheroids were generated as reported. Briefly, 2 × 10^4 LNCaP cells were mixed with 200 μL of phenol-red free growth factor-reduced Matrigel and 50 μL of organoid plating medium in each well. The mixture was pipetted in 24-well plate and allowed to solidify for 45 min at 37 °C, before the addition of 400 μL organoid plating-medium, which was made using phenol red-free DMEM/F12 medium, containing 7% CSS, penicillin (100 U/mL), streptomycin (100 U/mL), diluted GlutaMAX 100X (Gibco), 10 mM Hepes, B27 supplement (50 × stock solution; Thermofisher, Waltham, Massachusetts, USA), […] nicotinamide (Sigma-Aldrich), […] N-acetylcysteine (Sigma-Aldrich) and 10 μM Y-27632 (Millipore, Burlington, MA, USA). After 3 days, the organoid-plating medium was replaced with a similar medium in the absence of N-acetylcysteine and Y-27632. At the 3rd day, spheroids/organoids were untreated or treated with the indicated compounds. The medium was changed every 3 days and fields were analyzed by phase-contrast microscopy.
as §3

Row | SMILES | AR in lysates, Average (n=3) ([1]; 10 nM R1881 + compound 1 μM) | AR in lysates, Average (n=3) ([1]; compound 1 μM alone) | androgen-induced invasion [2] | invasion in the absence of hormone [2] | effect on DNA synthesis stimulated by R1881 [3] | inhibitory effect on R1881-stimulated DNA synthesis, compared with 3 and 5 [3] | TRPM8 in lysates, Average (n=3) ([4]; 10 nM R1881 + compound 1 μM) | TRPM8 in lysates, Average (n=3) ([4]; compound 1 μM alone) | androgen-induced cell migration [5] | migration when added alone [5] | androgen-induced increase of spheroid size ([6]; 1 nM R1881, compound 1 µM) | androgen-induced increase of spheroid size ([6]; 10 nM R1881, compound 1 μM) | spheroid size in the absence of hormone [6] | also measured
1 | c1ccc(COc2ccc3[nH]cc(CCNCc4ccc(Oc5ccccc5)cc4)c3c2)cc1 [Compound 4] | 0,9 | 0,9 | reversed | negligible effect | reverted | stronger | 1 | 1 | inhibited | leaving unaffected | reverted | abolished | leaving unaffected | 
2 | COC(=O)[C@H](Cc1c[nH]c2ccccc12)N(Cc1ccccc1)Cc1ccccc1 [Compound 6] | 1,1 | 0,9 | reversed | negligible effect | reverted | stronger | 1 | 1,1 | inhibited | leaving unaffected | reverted | abolished | leaving unaffected | 
3 | C[C@]1(O)CC[C@H]2[C@@H]3CCC4=CC(=O)CCC4=C3C=C[C@@]21C [Compound R1881, reference compound] |  |  |  |  |  |  |  |  |  |  |  |  |  | AR, Average (n=3) ([1]; Fig 6e, first group of list (section not labelled, probably lysates), R1881 alone): 1; AR in lysates, Average (n=3) ([1]; 10 nM R1881 alone, 10 min): 1; increase in number of invading cells in Matrigel ([2]; 10 nM R1881 alone): 1,6 folds; increase of the DNA synthesis ([3]; 1 nM R1881 alone): ~2 folds; increase in BrdU incorporation ([3]; 10 nM R1881 alone): ~3,5 folds; amount of TRPM8 (Western blot) ([4]; 10 nM R1881, 24 h, quiescent LNCaP cells): very weakly increased; TRPM8, Average (n=3) ([4]; Fig 6e, R1881 alone): 1; TRPM8 in lysates, Average (n=3) ([4]; 10 nM R1881 alone, 10 min): 0,9; increase in number of migrating cells ([5]; 10 nM R1881 alone): ~3 folds; response on spheroid size ([6]; 1 nM R1881 alone): only a weak response
